Data: patent US20250222066A1, “COMPOSITIONS AND METHODS OF TREATING, PREVENTING OR INHIBITING A FACULTATIVE ANAEROBE INFECTION” (UNIVERSITY OF UTAH RESEARCH FOUNDATION, priority 2022, published 2025)
“Also recorded” adds a separate entry of the source. Where two headings read alike, the source gives them in different places.

Key:
[1] = test system: S. aureus ATCC 6538 biofilms; assay: CDC biofilm reactor coupons, 24 h antibiotic treatment, bioburden by serial dilution plating; assay type: cell-based; details: 24 h treatment, FIG. 1 and FIG. 7
Procedure: (§1) For determining the broad-spectrum utility of metronidazole, respective bacterial species were grown into stationary biofilms using a 2- or 3-day species-specific growth protocol in a CDC biofilm reactor on standard 0.5 in polycarbonate coupons. Each reactor holds up to 24 coupons/samples with adherent biofilms. Bacterial bioburden, represented as colony forming units (CFUs), from five reactor samples/coupons (n=5) were quantified by first dispersing the bacterial biofilms in 2 ml of PBS by standardized vortex-sonication technique and serial-dilution plating. Importantly, this quantification technique provides bioburden data with logarithmic sensitivity. […] The gray shaded regions represent standard deviations.
(§2) Three groups of 5 coupons/samples (n=5) were placed into 2 ml treatments either containing 0.5-1 mg/ml of gentamicin, metronidazole, or combinations thereof (in CAMHB) and incubated for 24 h at 37° C. Importantly, the total antibiotic concentration (mg/ml) was fixed for each sample to enable assessment of compound synergy.
After the 24 h treatment, the bacteria adhered to coupons were quantified by rinsing the samples very gently in excess PBS followed by vortexing and sonicating to disperse the biofilm in 2 ml PBS and subsequent serial-dilution plating. The bioburden of the adhered bacteria is represented by the blue bars in FIG. 1. […] Broth bioburden is represented by the red bars in FIG. 1.
Twelve hypoxia activated prodrugs from three categories were tested: nitroimidazoles (same class as metronidazole), nitrofurans, and anti-tumor agents.
To test each compound, the contents of an entire CDC-biofilm reactor (24 coupons/biofilm samples) were used (see FIG. 2 and FIG. 3). […] Using the methods described above, 4 reactor samples/coupons served as reactor controls. The remaining 20 samples/coupons were split into 4 treatment groups of 5 samples each (n=5).
For testing against S. aureus biofilms, the compounds were prepared at a concentration of 1 mM in CAMHB; coupons were treated in 2 ml for 24 h. Compounds were intentionally prepared in units of molarity rather than the more common weight/volume ratios of clinicians.
This choice was made for two reasons.
Two of the treatment groups were the same for each test: one in 1 mM nafcillin (a β-lactam antibiotic) and a second in 1 mM gentamicin. […] For comparison for most compounds 1 mM ranges from ˜0.15-0.5 mg/ml, 1 or 2 Log 2 dilutions below tests in FIG. 1. […] The other compounds were tested at the same concentrations.
Quantification of the post-treatment residual bioburden was performed by dispersing biofilm bacteria into the 2 ml treatments with its constituent bacteria by vortexing, and sonicating. […] The pelleted bacteria were resuspended and measured by the serial dilution plating technique. Thus, the values presented in FIGS. 2, 3 and 4 represent the cumulative change in bioburden from the surface-attached biofilms and bacteria in the treatments.

S. epidermidis = assay: Minimum inhibitory concentration (MIC) assay, planktonic bacteria; assay type: cell-based, Staphylococcus epidermidis; details: Staphylococcus epidermidis, for 1:1 combinations MIC is the sum of both compounds
Procedure: as §2
(§3) For comparison to these biofilm tests with adjunctive metronidazole, the MIC was determined for each organism and each compound tested.

S. aureus = assay: as above; assay type: cell-based; details: for MIC: Staphylococcus aureus
Source text: Shortcomings of clinical antibiotic susceptibility assays. The antibiotic-susceptibility assays used to guide clinical treatment and prophylaxis rely on actively-dividing planktonic bacteria (Williams, D. L. & Costerton, J. W. J Biomed Mat Res B 100, 1163-1169 (2011)). Among the assays performed by clinical reference laboratories are the minimum inhibitory concentration (MIC), and disk diffusion (Kirby-Bauer) assays. The ubiquity of these assays is owed to the fact that they are high throughput, relatively quick to perform, repeatable, and have short turnaround times. They inform clinicians regarding which antibiotic are applicable for a given infection from a simple site swab, blood, or aspirate sample. […] Thus, when a compound, such as metronidazole performs poorly in an MIC assay, a physician would be thoroughly dissuaded from using it. Likewise, in drug-development, a high MIC value would exclude potentially useful anti-biofilm agents from candidate drug libraries. […] Using orthodox clinical methodology, there would be no basis to administer metronidazole in the treatment of a S. aureus-related infections, despite its exceptional efficacy against bacterial biofilms of the same isolates. The MIC assay fails to provide any information about susceptibility profiles of bacteria that reside in the biofilm phenotype.
as §3

E. coli = assay: as above; assay type: cell-based, Escherichia coli; details: Escherichia coli, for 1:1 combinations MIC is the sum of both compounds
Procedure: as §3

P. aeruginosa = assay: as above; assay type: cell-based; details: Pseudomonas aeruginosa, for 1:1 combinations MIC is the sum of both compounds
Procedure: as §3

A. baumannii = assay: as above; assay type: cell-based; details: Acinetobacter baumannii; aerobic; for 1:1 combinations MIC is the sum of both compounds
Procedure: as §3

MRSA USA300 = assay: as above; assay type: cell-based; details: Staphylococcus aureus, for 1:1 combinations MIC is the sum of both compounds
Procedure: as §3

S. aureus biofilm = assay: Live/dead imaging of metronidazole-treated biofilm; assay type: cell-based; details: 0.5 mg/ml metronidazole, 24 h
Source text: FIGS. 9A-B show biofilm histochemical staining. […] Staining of pimonidazole adducts in pimonidazole-treated S. aureus biofilms is localized in the core; the deepest location (darker brown region indicated by arrow) adjacent to the collagen substrate. Regions where oxygen tension is insufficiently low for pimonidazole adduct formation is shown (arrow head; lighter brown region). […] Viable bacteria (green) resided on the biofilm surface, where oxygen and nutrients were readily available.
Next, a time-lapse confocal imaging paired with live-dead staining was used to observe the location of metronidazole-induced cell death.

K. pneumoniae = assay: Minimum inhibitory concentration (MIC) assay, planktonic bacteria; assay type: cell-based, Klebsiella pneumoniae; details: for MIC: Klebsiella pneumoniae, for 1:1 combinations MIC is the sum of both compounds
Procedure: as §3

[2] = test system: biofilms of a range of Gram-negative and Gram-positive organisms; assay: CDC biofilm reactor test of metronidazole combinations across species (FIG. 1); assay type: cell-based; details: paired with gentamicin or levofloxacin (S. epidermidis); 0.5-1 mg/ml total, 24 h
Procedure: as §1, §2
After the 24 h treatment, the bacteria adhered to coupons were quantified by rinsing the samples very gently in excess PBS followed by vortexing and sonicating to disperse the biofilm in 2 ml PBS and subsequent serial-dilution plating. The bioburden of the adhered bacteria is represented by the blue bars in FIG. 1. […]

[3] = test system: S. aureus ATCC 6538 biofilms; assay: Hypoxyprobe immunohistochemical staining of pimonidazole adducts in biofilms; assay type: cell-based; details: 0.06 mg/ml pimonidazole, 5 h
Source text: Further, the Hypoxyprobe™ immunohistochemistry kit was used to identify regions of the biofilm that might be hypoxic, and to identify regions with nitro-reductase activity. At the core of the Hypoxyprobe™ kit is the use of the nitroimidazole pimonidazole; it is used to treat, usually animal tissues, but in this case bacterial tissues (biofilms) while in homeostasis prior to fixation, embedment, sectioning, and staining (see structures FIGS. 5E-F). The nitro group on pimonidazole, like that on metronidazole, is reductively activated in hypoxic mammalian tissues by reaction with catalytic nitro-reductase enzymes; it then forms indiscriminate adducts with inter-cellular thiol groups. In the presence of oxygen, the reduced nitro group in pimonidazole (and metronidazole) rapidly reacts with oxygen thereby cycling back to the parent compound. The Hypoxyprobe™ kit contains a primary antibody against these intercellular pimonidazole adducts. Successful immunohistochemical staining of pimonidazole adducts in the biofilm core indicates two important things. First, it would show nitro-reductase activity in the biofilm, and second it would be direct evidence for […] oxygen tension for a nitroimidazole prodrug radical to persist and react with critical cellular components. […]

[4] = anaerobic, read-out: Anaerobic MIC

| Structure (SMILES) | antibiofilm activity [1] | MIC (S. epidermidis; aerobic, read-out: Aerobic MIC) | MIC (S. epidermidis; [4]) | effect against planktonic bacteria as indicated by the MIC (S. aureus; FIG. 7 legend) | MIC (S. aureus; aerobic, for 1:1 combinations MIC is the sum of both compounds, read-out: Aerobic MIC) | MIC (S. aureus; anaerobic, for 1:1 combinations MIC is the sum of both compounds, read-out: Anaerobic MIC) | MIC (S. aureus; isolate used in biofilm tests, read-out: MIC against S. aureus) | MIC (E. coli; aerobic, read-out: Aerobic MIC) | MIC (E. coli; [4]) | MIC (P. aeruginosa; aerobic, read-out: Aerobic MIC) | MIC (P. aeruginosa; [4]) | MIC (A. baumannii) | MIC (MRSA USA300; aerobic, read-out: Aerobic MIC) | MIC (MRSA USA300; [4]) | location of dead and viable bacteria by live/dead staining (S. aureus biofilm) | MIC (K. pneumoniae; aerobic, read-out: Aerobic MIC) | MIC (K. pneumoniae; [4]) | reduction in MIC, anaerobic versus aerobic (K. pneumoniae; log-phase planktonic bacteria) | synergistic kill against biofilms [2] | location of pimonidazole adducts (nitro-reductase activity, hypoxia) [3] |
| --- | --- | --- | --- | --- | --- | --- | --- | --- | --- | --- | --- | --- | --- | --- | --- | --- | --- | --- | --- | --- |
| Cc1ncc([N+](=O)[O-])n1CCO [Metronidazole, metronidazole] | much greater antibiofilm activity compared to traditional antibiotics; also recorded: graded concentration-dependent effect against biofilms; also recorded: killed the otherwise difficult-to-kill persister cells embedded within the biofilm | 312 µg/mL | 625 µg/mL | little effect against planktonic bacteria | 2500 µg/mL | > 2500 µg/mL | > 2500 µg/mL | 1250 µg/mL | 156 µg/mL | > 2500 µg/mL | > 2500 µg/mL | > 2500 µg/mL | 1250 µg/mL | 1250 µg/mL | an abundance of dead and dying bacteria in the biofilm core contrasted with viable bacteria on the biofilm surface; also recorded: Dead cells (red) resided deep within the biofilm core | > 2500 µg/mL | 1250 µg/mL | two | strong synergistic kill |  |
| O=[N+]([O-])c1nccn1CC(O)CN1CCCCC1 (centres unmarked) [pimonidazole] |  |  |  |  |  |  |  |  |  |  |  |  |  |  |  |  |  |  |  | adducts banded throughout the deepest parts of the biofilm core |
